By IC50 is commonly meant the concentration at which inhibition is half-maximal. A lower IC50 goes with greater potency. A word on the Ki: it is the dissociation constant of the complex between target and ligand, obtained from inhibition or displacement.

For one assay, the system named is LNCaP. Put plainly: Cytotoxicity against human LNCaP cells incubated for 72 hrs by CCK8 assay. (Tetrazolium assays rely on reduction of a dye to a coloured formazan, in cell work by metabolically active cells.)
Another assay concerns DU-145. Put plainly: Cytotoxicity against human DU-145 cells incubated for 72 hrs by CCK8 assay. To be noted: DU-145, 72 h.
The target in assay [1] is T1, Proteasome component C5 (Homo sapiens) (UniProt P20618).
T1 sequence (whole entry): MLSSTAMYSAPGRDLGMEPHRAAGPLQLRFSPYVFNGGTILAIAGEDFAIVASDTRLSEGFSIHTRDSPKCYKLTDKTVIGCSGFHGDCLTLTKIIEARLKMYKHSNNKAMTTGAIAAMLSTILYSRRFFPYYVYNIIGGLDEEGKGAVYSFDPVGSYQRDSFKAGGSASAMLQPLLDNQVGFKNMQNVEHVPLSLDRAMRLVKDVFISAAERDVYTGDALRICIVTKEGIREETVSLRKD
The assay can be described thus: Inhibition of 20S proteasome beta-1 (unknown origin) upto 150 uM.

The subject of another assay is MM1.S. Put plainly: Cytotoxicity against human MM1.S cells. It counts as functional, cell-based.
Assay [2] concerns the target T2, Proteasome Macropain subunit MB1 (Homo sapiens, UniProt P28074).
T2 sequence (P28074 whole entry): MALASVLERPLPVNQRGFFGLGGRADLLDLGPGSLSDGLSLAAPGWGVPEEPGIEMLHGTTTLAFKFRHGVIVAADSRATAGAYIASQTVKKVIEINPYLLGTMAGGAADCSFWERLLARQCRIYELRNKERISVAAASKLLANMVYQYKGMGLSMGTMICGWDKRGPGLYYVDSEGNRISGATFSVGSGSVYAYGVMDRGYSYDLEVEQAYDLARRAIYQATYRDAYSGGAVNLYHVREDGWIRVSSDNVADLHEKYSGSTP
The assay can be described thus: Inhibition of 20S proteasome beta-5 in human erythrocytes using Suc-LLVY-AMC as substrate by AK-740 assay. Also noted: species or system Erythrocyte.

Each structure is given as a SMILES string. Calls of active or inactive are those of the source. No cut-off for these calls is given here.

Turning to `CCCCCCCCCC(=O)N[C@@H](Cc1ccccc1)C(=O)N[C@H]1CCCCNC(=O)/C=C/[C@H](Cc2ccc(B(O)O)cc2)NC1=O`, the IC50 with LNCaP is 882 nM; with DU-145, 723 nM.

As to `CCCCCCCCCC(=O)N[C@@H](Cc1ccccc1)C(=O)N[C@H]1CCCCNC(=O)/C=C/[C@H](Cc2ccc(NC)cc2)NC1=O`, the IC50 with LNCaP amounted to 103 nM; with DU-145 it was 142 nM.

For `CCCCCCCCCC(=O)N[C@@H](Cc1ccccc1)C(=O)N[C@H]1CCCCNC(=O)/C=C/[C@H](Cc2ccc(CN(C)C)cc2)NC1=O`, the IC50 with LNCaP and in the assay on DU-145 was over 1000 nM in each case.

As to `CCCCCCCCCC(=O)N[C@@H](Cc1ccccc1)C(=O)N[C@H]1CCCCNC(=O)/C=C/[C@H](Cc2ccc(C(N)=O)cc2)NC1=O`, the IC50 with LNCaP and in the assay with DU-145 was over 1000 nM each time.

Regarding `CCCCCCCCCC(=O)N[C@@H](Cc1ccccc1)C(=O)N[C@H]1CCCCNC(=O)/C=C/[C@H](CC(=O)O)NC1=O`, the IC50 in the assay on LNCaP and with DU-145 was over 1000 nM in each case.

In the case of `CCCCCCCCCC(=O)N[C@@H](Cc1ccccc1)C(=O)N[C@H]1CCCCNC(=O)/C=C/[C@H](C(C)C)NC1=O`, the IC50 in the assay with LNCaP was 91.2 nM; in the assay with DU-145, 119 nM.

Take `CCCCCCCCCC(=O)N[C@@H](Cc1ccccc1)C(=O)N[C@H]1CCCCNC(=O)/C=C/[C@H](Cc2ccc(OC)cc2)NC1=O`: the values for the IC50 with LNCaP and in the assay with DU-145 were 116 nM and 487 nM, respectively.

On to `CCCCCCCCCC(=O)N[C@@H](Cc1ccccc1)C(=O)N[C@H]1CCCCNC(=O)/C=C/[C@H](Cc2ccc(O)cc2)NC1=O`, for which the figures for the half-maximal inhibitory concentration (IC50) in the assay on LNCaP and with DU-145 were 575 nM and over 1000 nM, respectively.

As to `CCCCCCCCCC(=O)N[C@@H](Cc1ccccc1)C(=O)N[C@H]1CCCCNC(=O)/C=C/[C@H](Cc2ccc(N(C)C)cc2)NC1=O`, the IC50 amounted to 94 nM with LNCaP and 101 nM in the assay with DU-145.

As for `CCCCCCCCCC(=O)N[C@@H](Cc1ccccc1)C(=O)N[C@H]1CCCCNC(=O)/C=C/[C@H](Cc2ccccc2)NC1=O`, the IC50 is 43.5 nM in the assay on LNCaP and 49.1 nM in the assay with DU-145.

Turning to `CC(C)[C@H](NC(=O)N[C@H](C(=O)N[C@H]1CCCCNC(=O)/C=C/[C@H](C(C)C)NC1=O)C(C)C)C(=O)O`, the inhibition entry in assay [1] was “inactive”.

For the compound `CCCCCCCCCC(=O)N[C@@H](Cc1ccccc1)C(=O)N[C@H]1CCCCNC(=O)/C=C/[C@H](Cc2ccc(C#N)cc2)NC1=O`, the results for the IC50 in the assay on LNCaP and in the assay with DU-145 were 920 nM and over 1000 nM, respectively.

Take `CCCCCCCCCC(=O)N[C@@H](Cc1ccccc1)C(=O)N[C@H]1CCCCNC(=O)/C=C/[C@H](Cc2ccc(NC(=N)N)cc2)NC1=O`: the IC50 with LNCaP and in the assay with DU-145 was over 1000 nM throughout.

Take `CCCCCCCCCC(=O)N[C@@H](Cc1ccccc1)C(=O)N[C@H]1CCCCNC(=O)/C=C/[C@H](Cc2ccc(C(=O)O)cc2)NC1=O`: the IC50 in the assay on LNCaP and with DU-145 was over 1000 nM throughout.

For `CC(C)[C@H](NC(=O)N[C@H](C(=O)N[C@H]1/C=C/CCNC(=O)/C=C/[C@H](C(C)C)NC1=O)C(C)C)C(=O)O`, it took 8500 nM to reach half-maximal inhibition in the assay with MM1.S (IC50).

In turn, `CCCCCCCCCC(=O)N[C@@H](Cc1ccccc1)C(=O)N[C@H]1CCCCNC(=O)/C=C/[C@H](CCC(=O)O)NC1=O` came in with a Ki in assay [2] of over 10000 nM. Besides, the IC50 in the assay with LNCaP and in the assay on DU-145 was over 1000 nM throughout.

Regarding `CCCCCCCCCC(=O)N[C@@H](Cc1ccccc1)C(=O)N[C@H]1CCCCNC(=O)/C=C/[C@H](Cc2ccc(CN)cc2)NC1=O`, the IC50 in the assay with LNCaP and with DU-145 was over 1000 nM throughout.

Regarding `CCCCCCCCCC(=O)N[C@@H](Cc1ccccc1)C(=O)N[C@H]1CCCCNC(=O)/C=C/[C@H](Cc2ccc(CC(=N)N)cc2)NC1=O`, the concentration for half-maximal inhibition (IC50) with LNCaP and in the assay with DU-145 was over 1000 nM throughout.

`CCCCCCCCCC(=O)N[C@@H](Cc1ccccc1)C(=O)N[C@H]1CCCCNC(=O)/C=C/[C@H](Cc2ccc([N+](=O)[O-])cc2)NC1=O`: the IC50 in the assay with LNCaP and in the assay on DU-145 was over 1000 nM in each case.

Regarding `CCCCCCCCCC(=O)N[C@@H](Cc1ccccc1)C(=O)N[C@H]1CCCCNC(=O)/C=C/[C@H](Cc2ccc(N)cc2)NC1=O`, the results for the IC50 with LNCaP and in the assay with DU-145 were 181 nM and 292 nM, respectively.

The record behind these values is ChEMBL document CHEMBL5550143, “Modulation of proteasome subunit selectivity of syringolins” (Bioorg Med Chem, 2024).
